Results published in ChEMBL document CHEMBL4392825, “New SIRT2 inhibitors: Histidine-based bleomycin spin-off” (Bioorg Med Chem, 2019).

Tests used:
[1] = biological target: T1, NAD-dependent protein deacetylase sirtuin-2 (Homo sapiens, UniProt Q8IXJ6); test: Inhibition of recombinant SIRT2 (unknown origin) using FAM-RHKK(Ac)LM as substrate measured after 60 mins by electrophoretic mobility shift assay
T1 sequence (Q8IXJ6 whole entry): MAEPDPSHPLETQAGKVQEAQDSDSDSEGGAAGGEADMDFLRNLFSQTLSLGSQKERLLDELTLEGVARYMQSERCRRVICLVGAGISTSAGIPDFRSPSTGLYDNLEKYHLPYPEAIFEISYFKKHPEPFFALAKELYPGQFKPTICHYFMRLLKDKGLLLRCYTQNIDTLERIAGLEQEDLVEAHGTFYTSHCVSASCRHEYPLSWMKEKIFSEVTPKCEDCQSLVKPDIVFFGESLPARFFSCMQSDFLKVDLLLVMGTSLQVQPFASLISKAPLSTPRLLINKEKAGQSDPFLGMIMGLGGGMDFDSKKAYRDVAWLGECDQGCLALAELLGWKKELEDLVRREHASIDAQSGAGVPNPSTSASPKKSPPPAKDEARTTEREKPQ

[2] = test system: MT2; test: Cytotoxicity against human MT2 cells assessed as reduction in cell viability measured after 1 day by MTT assay; format: cell-based; settings: MT2, 24 h
[3] = biological target: T2, NAD-dependent protein deacetylase sirtuin-1 (Homo sapiens) (UniProt Q96EB6); test: Inhibition of recombinant SIRT1 (unknown origin) assessed as residual activity using RHKK(Ac)-MCA as substrate measured after 60 mins by fluorescence assay relative to control; parameters: concentration or dose not given beside the values
T2 sequence (whole entry): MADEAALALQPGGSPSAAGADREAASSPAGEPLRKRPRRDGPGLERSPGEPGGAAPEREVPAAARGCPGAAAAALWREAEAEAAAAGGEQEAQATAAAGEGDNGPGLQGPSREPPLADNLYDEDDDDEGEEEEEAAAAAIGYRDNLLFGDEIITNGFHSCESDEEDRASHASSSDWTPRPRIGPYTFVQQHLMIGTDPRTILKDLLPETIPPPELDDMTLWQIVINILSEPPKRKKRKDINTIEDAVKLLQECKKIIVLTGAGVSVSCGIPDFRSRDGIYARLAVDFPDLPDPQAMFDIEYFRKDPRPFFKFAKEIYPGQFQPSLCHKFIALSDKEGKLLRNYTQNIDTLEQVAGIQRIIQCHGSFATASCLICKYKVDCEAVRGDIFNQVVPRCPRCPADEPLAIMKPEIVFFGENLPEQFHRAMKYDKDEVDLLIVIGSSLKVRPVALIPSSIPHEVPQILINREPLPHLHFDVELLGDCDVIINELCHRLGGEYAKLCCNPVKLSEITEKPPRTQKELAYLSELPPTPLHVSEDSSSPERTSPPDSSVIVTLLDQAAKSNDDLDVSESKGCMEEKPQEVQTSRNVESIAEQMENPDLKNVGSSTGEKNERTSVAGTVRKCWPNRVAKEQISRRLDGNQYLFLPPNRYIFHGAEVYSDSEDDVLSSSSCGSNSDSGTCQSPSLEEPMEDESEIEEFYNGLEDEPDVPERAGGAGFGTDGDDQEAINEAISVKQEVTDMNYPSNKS

[4] = biological target: T3, NAD-dependent protein deacetylase sirtuin-3, mitochondrial (Homo sapiens) (UniProt Q9NTG7); test: Inhibition of recombinant SIRT3 (unknown origin) assessed as residual activity using VSTPVK(Ac)-MCA as substrate measured after 60 mins by fluorescence assay relative to control; parameters: concentration or dose not given beside the values
T3 sequence (whole entry): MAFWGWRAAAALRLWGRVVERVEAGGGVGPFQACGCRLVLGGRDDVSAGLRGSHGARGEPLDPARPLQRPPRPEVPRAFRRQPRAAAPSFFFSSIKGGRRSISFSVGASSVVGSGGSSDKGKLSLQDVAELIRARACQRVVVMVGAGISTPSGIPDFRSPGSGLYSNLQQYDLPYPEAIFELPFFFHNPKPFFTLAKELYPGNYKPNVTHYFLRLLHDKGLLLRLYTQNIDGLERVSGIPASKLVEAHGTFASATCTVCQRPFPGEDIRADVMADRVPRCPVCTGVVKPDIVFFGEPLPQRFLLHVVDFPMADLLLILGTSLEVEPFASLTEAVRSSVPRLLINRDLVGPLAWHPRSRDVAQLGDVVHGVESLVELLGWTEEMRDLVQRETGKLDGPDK

[5] = test system: K562; test: Cytotoxicity against human K562 cells assessed as reduction in cell viability measured after 1 day by MTT assay; format: functional, cell-based; settings: K562, 24 h
[6] = test system: MCF7; test: Cytotoxicity against human MCF7 cells assessed as reduction in cell viability measured after 4 days by MTT assay; format: functional, cell-based; settings: MCF7, 96 h
[7] = biological target: T1, NAD-dependent protein deacetylase sirtuin-2; test: Inhibition of recombinant SIRT2 (unknown origin) using RHKK(Ac)-MCA as substrate measured after 60 mins by fluorescence assay

| Structure (SMILES) | IC50 [1] [µM] | IC50 [2] [µM] | Activity [3] [%] | Activity [4] [%] | IC50 [5] [µM] | IC50 [6] [µM] | IC50 [7] [µM] |
| --- | --- | --- | --- | --- | --- | --- | --- |
| COC(=O)[C@H](Cc1cn(C(c2ccccc2)(c2ccccc2)c2ccccc2)cn1)NCc1cccc(N(C)C)c1 | 5.6 |  |  |  |  |  |  |
| COC(=O)[C@H](Cc1cn(C(c2ccccc2)(c2ccccc2)c2ccccc2)cn1)NCc1ccc(Br)cn1 | 10.2 |  |  |  |  |  |  |
| COC(=O)[C@H](Cc1cn(C(c2ccccc2)(c2ccccc2)c2ccccc2)cn1)NCc1ccccn1 | 21.8 | 1.75 | 96.5 | 67.7 | 6.36 | 8.96 |  |
| COC(=O)[C@H](Cc1cn(C(c2ccccc2)(c2ccccc2)c2ccccc2)cn1)NCc1ccncc1Br | 6.7 |  |  |  |  |  |  |
| COC(=O)[C@H](Cc1cn(C(c2ccccc2)(c2ccccc2)c2ccccc2)cn1)NCc1ccc2ccccc2n1 | 2.5 |  |  |  |  |  |  |
| COC(=O)[C@H](Cc1cn(C(c2ccccc2)(c2ccccc2)c2ccccc2)cn1)NCc1cccc(Br)n1 | 7.5 |  |  |  |  |  |  |
| COC(=O)[C@H](Cc1cn(C(c2ccccc2)(c2ccccc2)c2ccccc2)cn1)NCc1ccccc1 | 16.4 |  |  |  |  |  |  |
| Cc1cc(C)nc(SCC(=O)Nc2ncc(Cc3cccc4ccccc34)s2)n1 |  | > 100 |  |  | > 100 | 13.7 |  |
| CCN(CC)c1ccnc(CN[C@@H](Cc2cn(C(c3ccccc3)(c3ccccc3)c3ccccc3)cn2)C(=O)OC)c1 | 1.3 | 4.36 |  |  | 6.27 | 0.71 |  |
| COC(=O)[C@H](Cc1cn(C(c2ccccc2)(c2ccccc2)c2ccccc2)cn1)NCc1cnc2ccccc2c1 | 3.3 |  |  |  |  |  |  |
| COC(=O)[C@@H](N)Cc1cn(C(c2ccccc2)(c2ccccc2)c2ccccc2)cn1 | 43 | 3.13 | 95.9 | 76.2 | 7.2 | 49.1 |  |
| COC(=O)[C@H](Cc1cn(C(c2ccccc2)(c2ccccc2)c2ccccc2)cn1)NCc1cc(N(C)C)cc(CN[C@@H](Cc2cn(C(c3ccccc3)(c3ccccc3)c3ccccc3)cn2)C(=O)OC)n1 |  | 8.86 |  |  | 7.91 | 1.72 | 8.8 |
| COC(=O)[C@H](Cc1cn(C(c2ccccc2)(c2ccccc2)c2ccccc2)cn1)NC(=O)c1ccccn1 | 20.4 |  |  |  |  |  |  |
| COC(=O)[C@H](Cc1cn(C(c2ccccc2)(c2ccccc2)c2ccccc2)cn1)NCc1ccc(Br)nc1 | 5.9 | 1.37 | 102 | 71.9 | 5.35 | 9.87 |  |
| COC(=O)[C@H](Cc1c[nH]cn1)NCc1cc(N(C)C)cc(CN[C@@H](Cc2cn(C(c3ccccc3)(c3ccccc3)c3ccccc3)cn2)C(=O)OC)n1 |  | 8.61 |  |  | 6.51 | 2.29 | 5.5 |
| COC(=O)[C@H](Cc1cn(C(c2ccccc2)(c2ccccc2)c2ccccc2)cn1)NCc1cc(N(C)C)ccn1 | 1.7 | 3.53 |  |  | 7.53 | 0.77 | 1.7 |
| COC(=O)[C@H](Cc1cn(C(c2ccccc2)(c2ccccc2)c2ccccc2)cn1)N(Cc1ccccc1)Cc1ccccc1 | > 100 |  | 116 | 90.7 |  |  |  |
| COC(=O)[C@H](Cc1cn(C(c2ccccc2)(c2ccccc2)c2ccccc2)cn1)NCc1ccc(N(C)C)cc1 | 11.8 | 6.81 | 105 | 81.7 | 10.4 | 11.9 |  |
